In PMC9863109 (Viruses, 2023):

Experiments:
[1] = cynomolgus monkey, in vivo; cited from earlier work
ectromelia virus [2] = details: mouse, in vivo, po; cited from earlier work
BALB/c mice = details: mouse, in vivo; cited from earlier work
[3] = mouse, in vivo
NZW rabbits = details: rabbit, in vivo; cited from earlier work
animals = details: in vivo, po; cited from earlier work
cynomolgus monkeys = details: cynomolgus monkey, in vivo; cited from earlier work
ectromelia virus [4] = details: mouse, in vivo; cited from earlier work
monkeypox virus = details: cynomolgus monkey, in vivo; cited from earlier work
[5] = mouse, in vivo; cited from earlier work
in vivo = details: both, ICR, mouse
[6] = system: monkeypox virus strain V79-1-005; details: in vivo, po; cited from earlier work
[7] = system: Ind-3a variola virus strain; details: mouse, in vivo, po; cited from earlier work
Wistar rats [8] = details: rat, in vivo
Wistar rats [9] = details: rat, in vivo; remark: listed apart in the source
ICR outbred mice [10] = details: mouse, in vivo
[11] = system: monkeypox virus strain V79-1-005; details: mouse, in vivo, po; cited from earlier work
ICR outbred mice [12] = details: mouse, in vivo; remark: listed apart in the source

O=C(NN1C(=O)C2C3C=CC(C4CC34)C2C1=O)c1ccc(C(F)(F)F)cc1 (centres unmarked) [ST-246, N-{3,5-dioxo-4-azatetracyclo[5.3.2.0^2,6.0^8,10]dodec-11-en-4-yl}-4-(trifluoromethyl)benzamide]
absolute oral bioavailability (Fabs) [1]: 31-77% | 50% effective dose (ectromelia virus [2]): 5.08 µg/g | disorders or damage in the animals (BALB/c mice): no disorders or damage | visible adverse reactions to i/v administration [3]: no visible adverse reactions | pathological effects (NZW rabbits): No pathological effects | animal death (animals): did not cause death | pathological processes (cynomolgus monkeys): did not cause any pathological processes | dose of optimal effectiveness (ectromelia virus [4]): 100 µg/g | effective dose (monkeypox virus): 3 µg/g | T1/2 [5]: 2.2 h | Tmax in serum [5]: 4.5 h | plasma Cmax [5]: 44000 ng/mL | Tmax (in vivo; iv): 0.25 h | half-life (in vivo; iv): 2 h | Cmax (in vivo; iv, Cmax): 13200 ng/mL | Cmax (in vivo; iv, maximum concentration (Cmax) of ST-246 in serum): 13200 ng/mL | Tmax (in vivo; po): 3 h | bioavailability (in vivo; po): 12.1% | half-life (in vivo; po): 3.4 h | Cmax (in vivo; po, Cmax): 15500 ng/mL | Cmax (in vivo; po, maximum concentration (Cmax) of ST-246 in serum): 15500 ng/mL

O=C(NNC(=O)C1C2C=CC(C3CC23)C1C(=O)O)c1ccc(C(F)(F)F)cc1 (centres unmarked) [NIOCH-14, 7-({[(4-trifluoromethyl)phenyl]formohydrazido}carbonyl)tricyclo[3.2.2.0^2,4]non-8-en-6-carboxylic acid]
signs of disease [6]: no signs of disease | 50% effective dose (ectromelia virus [2]): 3.59 µg/g | number of infected mice and virus production in the lungs [7]: significantly reduced | changes in hematological parameters (Wistar rats [8]): no significant changes | effect on animals' appearance and behavior (Wistar rats [8]): no significant effect | animal death (Wistar rats [9]): did not cause animal death | effect on hematological parameters (Wistar rats [9]): no significant effect | Absolute bioavailability Fabs [3]: 22.8% | time of maximum concentration of ST-246 in serum [3]: 15 min | visible adverse reactions to i/v administration [3]: no visible adverse reactions | WBC differential (ICR outbred mice [10]): remained unchanged | effect on animals' appearance and behavior (ICR outbred mice [10]): no significant effect | increase of platelet count vs. control group 1 (ICR outbred mice [10]): 28% | reduction of WBC count vs. control group 1 (ICR outbred mice [10]): 23% | virus production in the lungs [11]: significantly reduced virus production in the lungs | hazard class according to GOST 12.1.007-76 (ICR outbred mice [12]): low-hazard compound | macroscopic pathomorphological changes in organs (ICR outbred mice [12]): no macroscopic pathomorphological changes
